Reference: patent US8771944B2, “Use of micro-RNA as a biomarker of immunomodulatory drug activity” (Celgene Corporation, priority 2007, dated 2014)

Legend:
[1] = tested on: CD34+ hematopoietic precursor cells; test: miRNA differential expression profiling (Ambion Bioarrays) in CD34+ cells; type: cell-based; conditions: CD34+ hematopoietic precursor model
Source text: A CD34^+ hematopoietic precursor cell line was utilized to examine miRNA biomarker expression upon treatment with an immunomodulatory compound. CD34^+ cells used in preclinical studies were purchased from a commercial supplier (Lonza), isolated by positive immunomagnetic selection from bone marrow. In clinical studies, CD34^+ cells can be purified by positive immunomagnetic selection or by flow cytometric immunosorting from bone marrow or peripheral blood using conventional methodologies.
CD34^+ cells were expanded for 6 days in Iscove's DMEM media (Invitrogen) with 20% BIT serum substitute (StemCell Technologies) in the presence of SCF (100 ng/ml), Flt-3 ligand (100 ng/ml), and IL-3 (20 ng/ml) and then differentiated for 6 days in Iscove's/20% BIT containing SCF (50 ng/ml) and erythropoietin (2 U/ml) in the presence of 0.1% DMSO, 1 or 10 uM the immunomodulatory compound. Cells were grown in tissue culture and treated with the immunomodulatory compound according to methods known in the art. […]
The expression array method detected two miRNAs that were regulated by administration of immunomodulatory agents in the CD34^+ hematopoietic precursor model.

CD34+ cells = test: qRT-PCR of miR-130a and miR-146b in CD34+ cell cultures; type: cell-based; conditions: 6 days, 1 or 10 μm
Experimental: CD34^+ cells were expanded for 6 days in Iscove's DMEM media (Invitrogen) with 20% BIT serum substitute (StemCell Technologies) in the presence of SCF (100 ng/ml), Flt-3 ligand (100 ng/ml), and IL-3 (20 ng/ml) and then differentiated for 6 days in Iscove's/20% BIT containing SCF (50 ng/ml) and erythropoietin (2 U/ml) in the presence of 0.1% DMSO, 1 or 10 uM the immunomodulatory compound. Cells were grown in tissue culture and treated with the immunomodulatory compound according to methods known in the art.
To quantitate selected miRNAs with qRT-PCR, purified miRNA was analyzed using a TaqmanR microRNA Assay (Applied Biosystems). Five ng of purified miRNA was subjected to qRT-PCR with TaqmanR miRNA assay according to manufacturers instructions. Alternatively, the procedure may be achieved by using miRNA-specific reverse transcription and PCR primers with standard buffers, reagents, and methods.
Levels of miR-130a and miR-146b were determined using qRT-PCR as described above.

Namalwa cells [2] = test: miRNA expression profile / qRT-PCR of miR-143 and miR-145 in Namalwa cells; type: cell-based; conditions: 10 μM, 6 or 24 hours, FIG. 2
Experimental: An experiment similar to described above in Sections 6.1-6.5 was performed with a Namalwa lymphoma cell line model. The Namalwa Burkitt's lymphoma cell line was purchased from ATCC and grown in RPMI with 10% fetal bovine serum according to standard tissue culture methods known in the art.
Namalwa cells grown as above were treated for 6 or 24 hours with either 0.1% DMSO, 10 μM 1,3-dioxo-2-(2,6-dioxopiperidin-3-yl)-4-aminoisoindoline, or the HDAC inhibitor TSA 1 μM. Cells were harvested at indicated times and then miRNA was purified as outlined in previous sections.
miRNA expression profiles in Namalwa cells treated with immunomodulatory compounds were generated using methods similar to that described in Section 6.3.
Levels of miR-145 and miR-143 were determined using qRT-PCR. Purified miRNA was analyzed using a TaqmanR microRNA expression assay (Applied Biosystems). Five ng of purified miRNA was subjected to qRT-PCR with TaqmanR miRNA assays for miR-143 and miR-145 according to manufacturers instructions. The procedure may be achieved by using miRNA reverse transcription and PCR primers with standard buffers, reagents, and methods.

[3] = cited from earlier work
HL60 cells = test: Agilent miRNA array v2, lenalidomide-treated HL60 cells; type: cell-based, human; conditions: for miR-99b Fold Increase / miR-125a Fold Increase / miR-143 Fold Increase / miR-145 Fold Increase / miR-146b Fold Increase: HL-60 cells
Experimental: (§1) Additional assays were performed to determine the effects of lenalidomide (1-oxo-2-(2,6-dioxopiperidin-3-yl)-4-aminoisoindoline) administration to various cell cultures on the expression of miRNAs. The miRNAs were detected using the Agilent miRNA array v2, which contains probes for 760 human miRNAs. […] was isolated using the Qiagen miRNeasy kit, total RNA (100 ng) was dephosphorylated and ligated with pCp-Cy3. Labeled RNA was purified and hybridized to Agilent miRNA arrays.
HL60 cells: The addition of lenalidomide (1-oxo-2-(2,6-dioxopiperidin-3-yl)-4-aminoisoindoline) to a cell culture from an acute myelogenous leukemia (AML) cell line (HL60) was also shown to upregulate a number of miRNAs.

H929 cells = test: Agilent miRNA array v2, lenalidomide-treated H929 cells; type: cell-based, human; conditions: for miR-204 Fold Increase / miR-424 Fold Increase / miR-503 Fold Increase: H929 cells
Experimental: as §1

Namalwa cells [4] = test: Agilent miRNA array v2, lenalidomide-treated Namalwa cells; type: cell-based, human; conditions: for miR-143 Fold Increase / miR-145 Fold Increase: Namalwa cells
Experimental: as §1
Namalwa cells: Lenalidomide was added to Namalwa cells at a concentration of 0.1 μm, 1 μm, or 10 μm. The miRNA levels were measured at 24 and 48 hours after addition of the lenalidomide. The results with this array confirmed the upregulation of miR-143 and miR-145 in Namalwa cells in a dose-dependent response to administration of 1-oxo-2-(2,6-dioxopiperidin-3-yl)-4-aminoisoindoline (Table 2).

[5] = HL60 acute myelogenous leukemia cell line
[6] = HL60 cells, dose dependent manner at both 24 and 48 hours
[7] = 24 hour treatment, Lenalidomide 0.1 uM
[8] = 24 hour treatment, Lenalidomide 1.0 uM
[9] = 24 hour treatment, Lenalidomide 10.0 uM
[10] = 48 hour treatment, Lenalidomide 0.1 uM
[11] = 48 hour treatment, Lenalidomide 1.0 uM
[12] = 48 hour treatment, Lenalidomide 10.0 uM
[13] = H929 multiple myeloma cell line, 24 and 48 hours
[14] = Namalwa cells, 0.1, 1 or 10 μm, 24 and 48 hours, dose-dependent response
[15] = 24 hour treatment, 0.1 uM lenalidomide
[16] = 24 hour treatment, 1 uM lenalidomide
[17] = 24 hour treatment, 10 uM lenalidomide
[18] = 48 hour treatment, 0.1 uM lenalidomide
[19] = 48 hour treatment, 1 uM lenalidomide

## Nc1cccc2c1C(=O)N(C1CCC(=O)NC1=O)C2=O (stereo not drawn) [1,3-dioxo-2-(2,6-dioxopiperidin-3-yl)-4-aminoisoindoline]
[1]
  miR-130a expression change (expression array): upregulated
  miR-146b expression change (expression array): upregulated
CD34+ cells; FIG. 1A
  miR-146b expression (qRT-PCR) compared to DMSO control: upregulation
CD34+ cells; FIG. 1B
  miR-130a expression (qRT-PCR) compared to DMSO control: upregulation
Namalwa cells [2]
  miR-143 expression change: upregulation
  miR-145 expression change: upregulation

## Nc1cccc2c1CN(C1CCC(=O)NC1=O)C2=O (stereo not drawn) [Form E, 3-(4-amino-1-oxo-1,3 dihydro-isoindol-2-yl)-piperidene-2,6-dione]
[3]
  stability of polymorphic form in aqueous solvent systems: most stable form

## Nc1cccc2c1CN(C1CCC(=O)NC1=O)C2=O (stereo not drawn) [lenalidomide, 1-oxo-2-(2,6-dioxopiperidin-3-yl)-4-aminoisoindoline]
HL60 cells; [5]
  miR-143 expression change: upregulated
  miR-145 expression change: upregulated
HL60 cells; [6]
  miR-99b expression change: upregulated
  miR-125a expression change: upregulated
  miR-146b expression change: upregulated
HL60 cells; [7]
  miR-99b Fold Increase: 1.81 fold
  miR-125a Fold Increase: 1.56 fold
  miR-143 Fold Increase: 1.42 fold
  miR-145 Fold Increase: 1.33 fold
  miR-146b Fold Increase: 2.28 fold
HL60 cells; [8]
  miR-99b Fold Increase: 2.37 fold
  miR-125a Fold Increase: 1.93 fold
  miR-143 Fold Increase: 1.56 fold
  miR-145 Fold Increase: 1.62 fold
  miR-146b Fold Increase: 2.99 fold
HL60 cells; [9]
  miR-99b Fold Increase: 2.53 fold
  miR-125a Fold Increase: 2.04 fold
  miR-143 Fold Increase: 1.63 fold
  miR-145 Fold Increase: 1.77 fold
  miR-146b Fold Increase: 3.29 fold
HL60 cells; [10]
  miR-99b Fold Increase: 1.99 fold
  miR-125a Fold Increase: 1.72 fold
  miR-143 Fold Increase: 1.96 fold
  miR-145 Fold Increase: 1.89 fold
  miR-146b Fold Increase: 4.38 fold
HL60 cells; [11]
  miR-99b Fold Increase: 2.45 fold
  miR-125a Fold Increase: 2.05 fold
  miR-143 Fold Increase: 2.40 fold
  miR-145 Fold Increase: 2.27 fold
  miR-146b Fold Increase: 7.16 fold
HL60 cells; [12]
  miR-99b Fold Increase: 2.69 fold
  miR-125a Fold Increase: 2.24 fold
  miR-143 Fold Increase: 2.25 fold
  miR-145 Fold Increase: 2.34 fold
  miR-146b Fold Increase: 7.07 fold
H929 cells; [7]
  miR-204 Fold Increase: 1.75 fold
  miR-424 Fold Increase: 1.50 fold
  miR-503 Fold Increase: 1.61 fold
H929 cells; [8]
  miR-204 Fold Increase: 2.20 fold
  miR-424 Fold Increase: 2.08 fold
  miR-503 Fold Increase: 2.37 fold
H929 cells; [9]
  miR-204 Fold Increase: 2.00 fold
  miR-424 Fold Increase: 2.10 fold
  miR-503 Fold Increase: 2.44 fold
H929 cells; [10]
  miR-204 Fold Increase: 2.61 fold
  miR-424 Fold Increase: 1.71 fold
  miR-503 Fold Increase: 1.89 fold
H929 cells; [11]
  miR-204 Fold Increase: 4.30 fold
  miR-424 Fold Increase: 3.08 fold
  miR-503 Fold Increase: 3.80 fold
H929 cells; [12]
  miR-204 Fold Increase: 4.45 fold
  miR-424 Fold Increase: 3.36 fold
  miR-503 Fold Increase: 4.05 fold
H929 cells; [13]
  miR-204 expression change: increase in expression in a dose dependent manner
  miR-424 expression change: increase in expression in a dose dependent manner
  miR-503 expression change: increase in expression in a dose dependent manner
Namalwa cells [4]; [14]
  miR-143 expression change: upregulation
  miR-145 expression change: upregulation
Namalwa cells [4]; [15]
  miR-143 Fold Increase: 2.29 fold
  miR-145 Fold Increase: 2.34 fold
Namalwa cells [4]; [16]
  miR-143 Fold Increase: 3.81 fold
  miR-145 Fold Increase: 4.16 fold
Namalwa cells [4]; [17]
  miR-143 Fold Increase: 4.69 fold
  miR-145 Fold Increase: 4.96 fold
Namalwa cells [4]; [18]
  miR-143 Fold Increase: 2.31 fold
  miR-145 Fold Increase: 2.53 fold
Namalwa cells [4]; [19]
  miR-143 Fold Increase: 4.68 fold
  miR-145 Fold Increase: 5.12 fold
